Laboratory results published in publication PMC9358547 (2022).

What was measured:
[1] = test system: HTPu-var-1-G4 (human telomere variant-1, 23-mer) (DNA, G4) TAGGGTTAGGGTTAGGGTTAGGG; assay: UV melting at 295 nm; details: 30 mM sodium cacodylate pH 7.0, 0.5 mM EDTA, 4 μM DNA
[2] = test system: HTPu-var-1-G4 (human telomere variant-1, 23-mer) (DNA, G4) TAGGGTTAGGGTTAGGGTTAGGG; assay: electrophoretic mobility shift assay with complementary strand HTPy-var-1; details: 100 mM K+; 30 mM sodium cacodylate pH 7.0, 1 mM EDTA; DNA:peptide 1:120, 1:160; excess HTPy-var-1 added afterwards
[3] = test system: HTPu-var-1-G4 (human telomere variant-1, 23-mer) (DNA, G4) TAGGGTTAGGGTTAGGGTTAGGG; assay: tryptophan fluorescence quenching titration; details: 30 mM buffer pH 7.0, 0.5 mM EDTA, 25 °C, 4 μM peptide titrated with DNA
[4] = test system: HTPu-var-1-G4 (human telomere variant-1, 23-mer) (DNA, G4) TAGGGTTAGGGTTAGGGTTAGGG; assay: circular dichroism titration; details: 30 mM sodium cacodylate pH 7.0, 0.5 mM EDTA, 6 μM DNA, apparent constant

H-VAQKW-OH
ΔTm ([1]; 100 mM K+, DNA:peptide 1:40, non-monotonic (66.1 at 1:80)): -1.0 °C | ΔTm ([1]; 100 mM Na+, DNA:peptide 1:230): -0.9 °C | binding [2]: yes | Kb ([3]; 100 mM K+): 0.71 ± 0.42 µM | Kb ([3]; 100 mM Na+): 0.46 ± 0.11 µM | Kb ([4]; 100 mM K+): 290 ± 10 µM | Kb ([4]; 100 mM Na+): 260 ± 30 µM
